# Entries after “also recorded” stand apart in the source; their conditions may differ. Like-named read-outs stand apart in the source and are kept apart here.
# Tests used:
# [1] = tested on: primary human fetal RPE monolayers; assay: In vitro cell proliferation (EdU+ cells) in RPE monolayers; assay type: cell-based; details: for percentage of EdU+ cells / EdU+ cells compared to DMSO in the absence of injury (in words): 96 hours; for percentage of EdU+ cells: 1 μM, mean±SE; for EdU+ cells compared to DMSO in the absence of injury (in words): uninjured monolayers
# Protocol: Following 72-hour acclimation period, RPE monolayers were then subjected to a controlled horizontal scratch using the WoundMaker Tool™ (Essen BioScience Ltd., Welwyn Garden City, United Kingdom) according to the protocol provided by the manufacturer. Wells were subsequently washed 1-2 times with their respective media in order to remove cell debris. Cells were then treated with either 1 μM DMSO (as control) or 1 μM TDI-011536 dissolved in either FBS-containing or FBS-free media. To label and track proliferating cells, cells were incubated with 10 μM 5-Ethynyl-2′-deoxyuridine (EdU) for 96 hours.
# Ninety-six hours after the scratch, cells were immediately fixed with 4% paraformaldehyde (PFA) in phosphate-buffered saline (PBS) for 15 minutes at room temperature (RT). Cells were washed three times with PBS in between each step. Following fixation, cells were blocked and permeabilized with 3% bovine serum albumin (BSA) and 0.1% Triton X-100 in PBS for 2 hours at RT. Cells were then incubated with an EdU reaction cocktail according to the manufacturer's instructions for 30 minutes at RT, protected from light. Then, cells were incubated overnight with primary antibodies diluted in 3% BSA in PBS. The following morning, cells were incubated with secondary antibodies diluted in 3% BSA in PBS for 2 hours at RT, protected from light. Cells were counterstained with DAPI and then washed. A list of reagents and dilutions used can be found in Table 1.
# Regions measuring 800 μm^2 at various distances from the scratch within each well were analyzed. In uninjured wells, three regions were randomly selected within each well. In scratched wells, three regions were centered within the original scratch area (scratch region), which was determined by overlaying the brightfield image taken immediately post-scratch over the fluorescence images 96 hours post-scratch. Another three regions were selected immediately adjacent to the original scratch area but not within it (proximal region). Finally, three additional regions at least 800 μm from the original scratch area were selected (distal region). Apart from scratch regions, only regions that were intact and confluent immediately post-scratch were analyzed. Regions with significant cell loss or those that were otherwise not confluent following the scratch were excluded from analysis.
# Within each region, cell proliferation was quantified by dividing EdU/DAPI doubly positive cells by the total number of DAPI+ cells, expressed as a percentage. PAX6 expression was quantified as the ratio of PAX6+ nuclei among EdU/DAPI doubly positive nuclei, also expressed as a percentage.
# To assess the effect of Lats kinase inhibition on cell proliferation in the absence of injury, RPE monolayers were incubated with EdU for 96 hours with the addition of LKI or DMSO. Cell proliferation was quantified as the percentage of EdU+ cells within 3 randomly selected regions within each well.
# To assess whether Lats kinase inhibition accelerates wound healing via RPE proliferation in vitro, and the mechanism of wound closure with Lats kinase inhibition, RPE monolayers were incubated with EdU following the initial scratch and remained exposed to EdU for 96 hours. At 96 hours, cells were fixed and stained for various cell markers. The percentage of EdU+ cells within scratch, proximal, and distal regions was recorded (FIG. 2A).
# [2] = Solubility of the drug; assay type: physicochemical
# [3] = tested on: RPE injury by laser photocoagulation in Dutch-belted rabbits; assay: In vivo laser injury model: fundus photos and OCT imaging; design: species or system rabbit; details: listed as LKI; for OCT appearance of RPE layer at laser spots compared to control / pigmentation of laser spots on fundus photos compared to control: intravitreal 50 μL of 15 mM
# Source text: Laser photocoagulation was used as a model for RPE injury in vivo. Prior to laser photocoagulation, Dutch-belted rabbits were sedated with ketamine and xylazine. Eyes were anesthetized with topical proparacaine and dilated with phenylephrine and tropicamide. Lubricating drops and gel were applied to prevent desiccation of the cornea.
# To evaluate the effect of LATS kinase inhibition on the RPE injury response in vivo, following sedation and pharmacologic dilation, laser photocoagulation was delivered in a 6×6 grid pattern to both eyes with a 532 nm green laser (Iridex Corporation, Mountain View, CA, USA) mounted on an indirect ophthalmoscope. Power was set to 170 mW and pulse duration was set to 40 ms. Following the laser procedure, fundus photos of both eyes were obtained using a 28-diopter lens and smartphone. OCT images of both eyes were obtained on a SPECTRALIS (Heidelberg Engineering, Heidelberg, Germany) imaging system. Fundus photos and OCT images were again obtained at 1- and 4-week time points.
# Dutch-belted rabbits were sedated and underwent photocoagulation of both eyes as described above, with the exception of lesion intensity alteration. Instead, laser power was held at 170 mW and pulse duration remained at 40 ms.
# (§1) Following the laser procedure, the eyes were anesthetized once more with topical proparacaine. Povidone-iodine was applied to the conjunctiva or sclera using sterile Q-tips. Either 50 μL of 15 mM LATS kinase inhibitor (LKI), or vehicle control, was injected per eye using 1 mL Luer-lock syringe with a 27G 1½ inch needle. The second generation LKI, TDI-011536, was used as a micro-suspension formulation prepared in phosphate buffer solution (PBS; Sigma) supplemented with 0.5% carboxymethyl cellulose (Sigma) and 0.5% Kolliphor P 188 Bio (BASF Pharma). Intravitreal injections containing LKI were administered in the right eye and control injections were administered in the left eye. Injections were administered 1-2 mm posterior to the superotemporal or superonasal limbus and delivery of each compound was confirmed on indirect ophthalmoscopy.
# To evaluate the effect of Lats kinase inhibition on the RPE injury response in vivo, 17 Dutch-belted rabbits received photocoagulation procedure to cause focal disruptions of the RPE and photoreceptor layers in a 6×6 grid of laser spots. Following photocoagulation, each animal received an intravitreal injection of 50 μL of 15 mM LKI in the right eye ([…]) and 50 μL vehicle in the left eye (n=17 eyes). Fundus photos and OCT imaging were performed immediately following the laser procedure and at 1- and 4-week time points. Three independent experiments were performed.
# [4] = tested on: Dutch-belted rabbits; assay: Toxic effects / tolerability of intravitreal injection in vivo; design: species or system rabbit
# Protocol: as §1
# [5] = tested on: RPE monolayers; assay: Toxic effects in vitro; assay type: cell-based, human
# [6] = proximal regions, FBS-free media
# [7] = scratch regions, FBS-free media
smiles,measurement,setting,value
O=C(/N=c1\scc(CO)n1Cc1ccccc1)c1c[nH]c2ncccc12 [TDI-011536],percentage of EdU+ cells in monolayers not subjected to injury (in words),"[1]; discussion, media not stated",only a modest increase
same,percentage of EdU+ cells,"[1]; distal regions, FBS-free media",3.20±0.48%
same,"difference in percentage of EdU+ cells, LKI vs control","[1]; distal regions, FBS-free media",0.91±0.62%
same,percentage of EdU+ cells compared to control (in words),"[1]; distal regions, FBS-free media",no significant difference
same,percentage of EdU+ cells,[1]; [6],10.25±1.30%
same,"difference in percentage of EdU+ cells, LKI vs control",[1]; [6],7.36±1.38%
same,percentage of EdU+ cells compared to control (in words),[1]; [6],significantly higher percentage of EdU+ cells
same,percentage of EdU+ cells,[1]; [7],40.11±2.07%
same,"difference in percentage of EdU+ cells, LKI vs control",[1]; [7],6.88±2.80%
same,percentage of EdU+ cells compared to control (in words),[1]; [7],significantly higher percentage of EdU+ cells
same,percentage of EdU+ cells compared to control (in words),"[1]; scratched monolayers, FBS-containing media",significantly higher percentage of EdU+ cells at the scratch site and proximal areas but not distal areas
same,EdU+ cells compared to DMSO in the absence of injury (in words),[1]; FBS-containing media,significantly more EdU+ cells
same,EdU+ cells compared to DMSO in the absence of injury (in words),[1]; FBS-free media,significantly more EdU+ cells
same,solubility (in words),[2],highly insoluble
same,OCT appearance of RPE layer at laser spots compared to control,[3]; 1 week after laser,thickening of the RPE layer with associated shadowing; also recorded: Shadowing (*) was common; also recorded: appeared thicker with increased shadowing
same,pigmentation of laser spots on fundus photos compared to control,[3]; 1 week after laser,hyperpigmentation of laser spots; also recorded: increased pigmentation
same,OCT appearance of RPE layer at laser spots compared to control,[3]; 4 weeks after laser,more pronounced; also recorded: Shadowing (*) was common; also recorded: significantly increased thickness of the RPE layer
same,pigmentation of laser spots on fundus photos compared to control,[3]; 4 weeks after laser,more pronounced; also recorded: robust increase in pigmentation
same,persistence of LKI microsuspension (depot) in the eye,"[3]; rabbit eye, intravitreal 50 μL of 15 mM microsuspension",visible after 1 week; also recorded: up to a month
same,tolerability of intravitreal injection,[4]; animal model,well-tolerated
same,toxic effects in vivo,"[4]; rabbit, in vivo",no toxic effects
same,toxic effects in vitro,[5],No toxic effects
same,toxic effects in vitro,[5]; listed as LKI,no toxic effects
